Experiments:
[1] = test system: rat hind paw incision model; assay: Brennan incisional pain model, prophylactic paradigm; format: in vivo; details: single pre-surgical dose; 24 h, 48 h, 72 h post dose; FIG. 11
Excerpt: (§1) Two incisional pain models were used to assess Compound 1 effects on hyperalgesia. The first model is referred to as the Brennan model in which, under anesthesia, a 1 cm longitudinal incision to the skin and underlying fascia of a rat hindpaw is made. The second is a variation but is a more invasive procedure in which the skin and muscle are spread apart using forceps which creates a longer-lasting hypersensitivity.
Using the Brennan protocol and a prophylactic paradigm, Compound 1 (3 doses given PO) or vehicle was administered 15 min prior to incision. At the 24-, 48-, and 72-h time points post-incision, mechanical thresholds were obtained (manual von Frey filament, using up/down method).
In a subsequent experiment, the same paradigm was used with Compound 1 administered at a dose of 30 mg/kg PO along with positive control group consisting of celecoxib (30 mg/kg PO), morphine (10 mg/kg SC), and vehicle.

[2] = test system: established incision-induced mechanical hyperalgesia; assay: Brennan incisional pain model, treatment paradigm; format: in vivo, rat; details: morphine 3 mg/kg SC
Excerpt: as §1
Using the Brennan protocol and a treatment paradigm in rat, Compound 1 (10 and 30 mg/kg PO), morphine (3 mg/kg SC) or vehicle were administered daily at 24 h post-incision, and again at 48 and 72 h post-incision. Mechanical thresholds were obtained at 1 h and 2 h post-dose in all cohorts on all days.

SMILES	effect on development of mechanical hyperalgesia [1]	effect on established mechanical hyperalgesia (overall) ([2]; Compound 1 10 and 30 mg/kg PO daily, FIG. 12)	analgesia ([2]; Day 1, 2-h time point)	mechanical threshold ([2]; Day 1, 1 h post-dose) [g]	hyperalgesia ([2]; Day 2, 1-h time point)	hyperalgesia ([2]; Day 2, 2 h)	mechanical threshold ([2]; Day 2 prior to dosing (Pre-Drug (D2))) [g]
Cc1ccc(-c2cc(C(F)(F)F)nn2-c2ccc(S(N)(=O)=O)cc2)cc1 [celecoxib, reference compound]	no effect						
CN1CC[C@]23c4c5ccc(O)c4O[C@H]2[C@@H](O)C=C[C@H]3[C@H]1C5 [morphine, reference compound]	no effect	analgesic at t=1 h on d1, and at t=1 h and 2 h post-dose on d2 and d3	this effect waned	45	not hyperalgesic	mild hyperalgesia	< 15

Reference: patent publication US20200246316A1, “METHODS OF TREATING POST-SURGICAL PAIN WITH A THIAZOLINE ANTI-HYPERALGESIC AGENT” (CERSCI THERAPEUTICS, INC., priority 2019, published 2020)
